Measured values from patent US4202898A, “Method of treating anxiety and depression” (priority 1978, dated 1980).
Read-outs that look alike come from different tables or passages of the source.

Assays:
[1] = 4 plates test (percentage of desinibition observed in the mouse); format: in vivo; settings: for change in vivo at 1 mg/kg / change in vivo at 3 mg/kg / change in vivo at 10 mg/kg / change in vivo at 30 mg/kg: po, 1 h; for change in vivo at 1 mg/kg: read-out: percentage of desinibition (ACTIVITY, 1 mg/kg p.o.); for change in vivo at 3 mg/kg: read-out: percentage of desinibition (ACTIVITY, 3 mg/kg p.o.); for change in vivo at 10 mg/kg: read-out: percentage of desinibition (ACTIVITY, 10 mg/kg p.o.); for change in vivo at 30 mg/kg: 30 mg/kg p.o.
Experimental: This activity has been tested by the 4 plates test (Aron C. These de Medecine--Paris 1970; Boissier JR--Simon P. and Aron C., A new method for rapid screening of minor tranquillizers in mice, Europ. J. Pharmacol. 1968, 4, 145-151). The substances are administered in several doses (0.3, 1.0, 3.0, 10 and 30 mg/kg) per os, 60 minutes before the test.
The results, which give the percentage of desinibition observed in the mouse, are shown as Examples III-XVIII. At the same doses, the greater the percentage the higher the activity of the piperazine. The results for two known anxiolytic agents are set forth in Examples XIX and XX.

LD 50 toxicity, oral = settings: in vivo, p.o., tested as hydrochlorides
[2] = mouse, 1 mg/kg p.o., 60 minutes before the test
[3] = mouse, 3 mg/kg p.o., 60 minutes before the test
[4] = mouse, 10 mg/kg p.o., 60 minutes before the test
[5] = mouse, 60 minutes before the test

SMILES	change in vivo at 1 mg/kg [1, 2] [%]	change in vivo at 3 mg/kg [1, 3] [%]	change in vivo at 10 mg/kg [1, 4] [%]	change in vivo at 30 mg/kg [1, 5] [%]	LD50 (LD 50 toxicity, oral) [mg/kg]	percentage of desinibition (ACTIVITY, 0.3 mg/kg p.o.) [1, 5]	change in vivo at 3 mg/kg ([1]; Mus musculus) [%]	change in vivo at 10 mg/kg ([1]; Mus musculus) [%]	change in vivo at 1 mg/kg ([1]; Mus musculus) [%]
Nc1ccccc1C(=O)OCCN1CCN(c2cccc(C(F)(F)F)c2)CC1 [Example 11]	35	63	182	336	3000				
O=C(Nc1ccccc1)OCCN1CCN(c2cccc(C(F)(F)F)c2)CC1 [Example 17]			9	30					
CC(=O)OCCN1CCN(c2cccc(C(F)(F)F)c2)CC1 [Example 9]	24	49	220	156	925				
OCCN1CCN(c2cccc(SC(F)(F)F)c2)CC1 [Example 3, [4-(3'-trifluoromethylthiophenyl)-piperazino]-ethanol]	190	230	335	248	500	+118%			
OCCN1CCN(c2cccc(Cl)c2)CC1 [Example 6]	23	50	54		750				
CNC(=O)OCCN1CCN(c2cccc(SC(F)(F)F)c2)CC1 [Example 13]							49	152	
CC(C)(C)C(=O)OCCN1CCN(c2cccc(SC(F)(F)F)c2)CC1 [Example 21]	73	122	196						
O=C(Nc1ccccc1)OCCN1CCN(c2cccc(SC(F)(F)F)c2)CC1 [Example 18]	23	63	304	532		+15%			
COc1ccc(Cl)cc1C(=O)OCCN1CCN(c2cccc(C(F)(F)F)c2)CC1 [Example 12]			65		1800				
CNC1=Nc2ccc(Cl)cc2C(c2ccccc2)=[N+]([O-])C1 [chlordiazepozide, reference compound]	43	86	24						
OCCN1CCN(c2cccc(OC(F)(F)F)c2)CC1 [Example 5]	8	9	14	88	575				
CCCCNC(=O)OCCN1CCN(c2cccc(SC(F)(F)F)c2)CC1 [Example 15]	3	109	64						
CCCC(C)(COC(N)=O)COC(N)=O [meprobamate, reference compound]		53	38	142					
OCCN1CCN(c2cccc(C(F)(F)F)c2)CC1 [Example 4]			174	226	740				
CN(C)C(=O)OCCN1CCN(c2cccc(SC(F)(F)F)c2)CC1 [Example 14]								3	2
OCCN1CCN(c2ccccc2)CC1 [Example 7]	39	2			525				
CC(=O)OCCN1CCN(c2cccc(SC(F)(F)F)c2)CC1 [Example 8, (4-m-trifluoromethylthiophenyl-piperazino)-ethyl acetate]	88	191	312	154	510	+27%			
